Experimental data reported in patent US10835513B2, “Methods and treatments for the learning and memory deficits associated with Noonan syndrome” (The Regents of the University of California, priority 2013, dated 2020).

Test system: AAV-PTPN11^D61G-expressing mice
Assay: Morris water maze (hidden platform, probe trial) in AAV-PTPN11^D61G-expressing mice treated with SL327
Format: in vivo
Details: for proximity to the target platform, probe trial: SL327 32 mg/kg intraperitoneal
Protocol: To test whether reducing Erk activity could reverse the memory deficit in AAV-PTPN11^D61G-expressing mice, we treated these mice with the MEK inhibitor SL327 or vehicle daily, 30 min before training.
SL327 (Tocris) was dissolved in DMSO (16 mg/ml) and was injected intraperitoneally once daily, 30 min before the water maze experiment at a dose of 32 mg/kg. The volume of a single injection was under 80 μl. Lovastatin (Mevinolin, Sigma) was prepared as previously described^21. Briefly, lovastatin was dissolved in ethanol (final concentration of 8%) and 1N NaOH was added to convert mevinolin to the sodium salt. The pH of the final solution (4 mg/ml) was adjusted to 7.5 with HCl. The Vehicle solution was prepared with the same procedure. Lovastatin was administered daily (subcutaneous injection, 10 mg/kg) for 3 days before the first training day of the water maze and 6 hr before training every day thereafter.
The coding sequence of human PTPN11 with or without the D61G mutation was subcloned into the HindIII-NsiI site of the AAV expression vector pSOFF. The resultant vector expresses mutant PTPN11 under the synthetic CBA promoter (CMV enhancer and chicken beta-actin promoter). Recombinant virus (rAAV5) was purified as previously described^32. Briefly, an iodixanol gradient purification was performed followed by ion exchange chromatography step which results in a 99% pure vector preparation as judged by silver stained-SDS acrylamide gel fractionation. After the chromatography, the buffer was exchanged and the virus was concentrated in Ringer's solution using a Biomax 100 K concentrator (Millipore). Vector titers were determined by Real Time PCR. Typical titers were 3.09×10^12 genome copies/ml. rAAV5-GFP expressing only GFP was used as a control. […]
In the hidden platform-version of Morris water maze, mice were trained with two blocks of 2 trials (ITI=1 min) spaced about 45 min apart. […] Memory was assessed in probe trials that were given after completion of training as described in the main text. […] Data were acquired and analyzed using WaterMaze software (Actimetrics).

N#C/C(=C(/N)Sc1ccc(N)cc1)c1ccccc1C(F)(F)F [SL327]
proximity to the target platform, probe trial (GFP control group): 43.75±1.45 cm
proximity to the target platform, probe trial (PTPN11^D61G group): 45.52±2.14 cm
time spent in the target quadrant, probe trial (PTPN11^D61G-expressing mice, SL327 32 mg/kg intraperitoneal daily, 30 min before training): 37.25±3.50%
